The values that follow come from article PMC7663597, “Structure–Activity Relationship of Aloperine Derivatives as New Anti–Liver Fibrogenic Agents” (Molecules, 2020).

Counter-ions that a name gives are not always drawn. Marks after values point to notes of the source that are not given here.

In data set [1] the test system is COL1A1 promotor. Nature of the data set: COL1A1 promotor luciferase reporter gene assay in TGF-β1-treated LX-2 cells. It is filed as cell-based, human. The conditions noted are these: for inhibition at 40 µM / inhibition at 80 µM: Homo sapiens, LX-2, 24 h; for inhibition at 40 µM: 24 h with TGF-β1, read-out: Inhibition Percentage 40 μM (inhibition rate of COL1A1 promotor's activity); for inhibition at 80 µM: 24 h with TGF-β1, read-out: Inhibition Percentage 80 μM (inhibition rate of COL1A1 promotor's activity). The procedure: A single luciferase reporter gene detection model was applied to evaluate the inhibitory effects of all target compounds on the expression of COL1A1 promotor in human hepatic stellate LX-2 cells at the concentrations of 40 and 80 μM, taking EGCG as the positive control. The LX-2 cell lines were transfected with COL1A1 promotor luciferase plasmid pGL4.17-COL1A1P for 24 h, then simultaneously treated with TGF-β1 and a tested compound for 24 h.
Cells were maintained on Dulbecco’s Modified Eagle’s medium (DMEM), laid on 96-well plate. DMEM medium was supplemented with 10% fetal bovine serum (FBS) at 37 °C humidified atmosphere with 5% CO2. Furthermore, serum-free culture was required until the cells were confluent at 90−95%. 24 h later the cells were treated with a tested compound (40 and 80 μM) for 24 h. The COL1A1 promotor activity was detected by the Bright-Glo luciferase assay system. Alternatively, to test the acute effects of compound on luciferase activity, 24 h later the cells were lysed and the lysate was treated with a tested compound (80 μM) for 2 h, then the luciferase was detected by the Bright-Glo luciferase assay system (Promega, Madison, WI, USA).

As for `CCNC(=O)CN1CCCC2=C[C@H]3C[C@H](CN4CCCC[C@H]34)[C@@H]21` [4a, 12N-N′-Ethylcarbamoylmethyl aloperine], the melting point was 69 to 71 °C. In data set [1], the inhibition at 40 µM came out at 7.1 ± 25.6% and the inhibition at 80 µM worked out at 33.1 ± 1.6%.

Regarding `O=C(CN1CCCC2=C[C@H]3C[C@H](CN4CCCC[C@H]34)[C@@H]21)NS(=O)(=O)c1ccccc1` [7a, 12N-N′-Benzenesulfonyl carbamoylmethyl aloperine], the melting point lay in the range of 113 to 115 °C. Moreover, in data set [1], the inhibition at 40 µM worked out at 21.5 ± 4.3% and the inhibition at 80 µM is 17.1 ± 6.3%.

`O=C(CN1CCCC2=C[C@H]3C[C@H](CN4CCCC[C@H]34)[C@@H]21)NC1CCOCC1` (as salt: hydrochloride) [4b, 12N-N′-(Tetrahydro-2H-pyran-4-yl)carbamoylmethyl aloperine hydrochloride] gave a melting point of 199 to 201 °C.

Compound `O=C(CN1CCCC2=C[C@H]3C[C@H](CN4CCCC[C@H]34)[C@@H]21)NS(=O)(=O)c1ccc2ccccc2c1` [7d] came in with a melting point of 93 to 95 °C. Besides, in data set [1], the inhibition at 40 µM stood at 18.8 ± 5.2% and the inhibition at 80 µM was 9.4 ± 3.7%.

Turning to `CCCCS(=O)(=O)NCC(=O)N1CCCC2=C[C@H]3C[C@H](CN4CCCC[C@H]34)[C@@H]21` [10b, 12N-N′-n-Butylsulfonylaminoacetyl aloperine], the melting point was in the range of 98 to 100 °C. In data set [1], the inhibition at 40 µM is 41.1 ± 9.6% and the inhibition at 80 µM is 23.7 ± 22.7%.

`O=C(CNS(=O)(=O)c1cccc(OC(F)(F)F)c1)N1CCCC2=C[C@H]3C[C@H](CN4CCCC[C@H]34)[C@@H]21` [10f, 12N-N′-m-Trifluoromethoxybenzenesulfonylaminoacetyl aloperine] showed a melting point of 81 to 83 °C. In data set [1], the inhibition at 40 µM was found to be 43.4 ± 15.9% and the inhibition at 80 µM worked out at 41.4 ± 7.4%.

`COC(=O)c1ccc(C)c(NC(=O)CN2CCCC3=C[C@H]4C[C@H](CN5CCCC[C@H]45)[C@@H]32)c1` [4j, 12N-N′-(2-Methyl-5-methoxycarbonylphenyl)carbamoylmethyl aloperine] registered a melting point of 75 to 77 °C. In addition, in data set [1], the inhibition at 40 µM amounted to 3.8 ± 6.1% and the inhibition at 80 µM was found to be 32.4 ± 2.7%.

The compound `CCS(=O)(=O)NCC(=O)N1CCCC2=C[C@H]3C[C@H](CN4CCCC[C@H]34)[C@@H]21` [10a, 12N-N′-Ethylsulfonylaminoacetyl aloperine] returned a melting point of 145 to 147 °C. In data set [1], the inhibition at 40 µM came to 34 ± 7% and the inhibition at 80 µM came out at 34.9 ± 14.7%.

For `O=C(CN1CCCC2=C[C@H]3C[C@H](CN4CCCC[C@H]34)[C@@H]21)NC1CCOCC1` [4b, 12N-N′-(Tetrahydro-2H-pyran-4-yl)carbamoylmethyl aloperine hydrochloride], in data set [1], the inhibition at 40 µM was determined as 19 ± 3.8% and the inhibition at 80 µM is 29.8 ± 10%.

`O=C(CNS(=O)(=O)c1cccc(Br)c1)N1CCCC2=C[C@H]3C[C@H](CN4CCCC[C@H]34)[C@@H]21` [10d, 12N-N′-m-Bromobenzenesulfonylaminoacetyl aloperine] showed a melting point of 101 to 103 °C. In data set [1], the inhibition at 40 µM was 28.5 ± 12.3% and the inhibition at 80 µM was 27.1 ± 10.1%.

The compound `O=C(CN1CCCC2=C[C@H]3C[C@H](CN4CCCC[C@H]34)[C@@H]21)NS(=O)(=O)c1cccc(C(F)(F)F)c1` [7b, 12N-N′-3-Trifluoromethylbenzenesulfonyl carbamoylmethyl aloperine] yielded a melting point of 105 to 107 °C. Also, in data set [1], the inhibition at 40 µM came to 23.5 ± 13.5% and the inhibition at 80 µM was 20.2 ± 1.9%.

Consider `O=C(CN1CCCC2=C[C@H]3C[C@H](CN4CCCC[C@H]34)[C@@H]21)NC12CC3CC(CC(C3)C1)C2` [4c, 12N-N′-Adamantylcarbamoylmethyl aloperine], for which the melting point was in the range of 176 to 178 °C. Moreover, in data set [1], the inhibition at 40 µM is 23.7 ± 7.7% and the inhibition at 80 µM stood at 39.2 ± 1.2%.

`O=C(CN1CCCC2=C[C@H]3C[C@H](CN4CCCC[C@H]34)[C@@H]21)N1CCCC1` [4o, 12N-N′-(1-Pyrrolidinyl)carbamoylmethyl aloperine]: the melting point was in the range of 78 to 80 °C. For the same compound, in data set [1], the inhibition at 40 µM was determined as 16.5 ± 9.8% and the inhibition at 80 µM was 36.7 ± 9.9%.

In turn, `O=C(CN1CCCC2=C[C@H]3C[C@H](CN4CCCC[C@H]34)[C@@H]21)Nc1ccc(F)cc1` [4e, 12N-N′-(4-Fluorophenyl)carbamoylmethyl aloperine] registered a melting point of 119 to 121 °C. In data set [1], the inhibition at 40 µM is 21.4 ± 1.5% and the inhibition at 80 µM amounted to 26.5 ± 0.5%.

On to `O=C(CNS(=O)(=O)c1ccccc1)N1CCCC2=C[C@H]3C[C@H](CN4CCCC[C@H]34)[C@@H]21` [10c, 12N-N′-Benzenesulfonylaminoacetylaloperine], for which the melting point was 63 to 65 °C. Further, in data set [1], the inhibition at 40 µM was found to be 23.7 ± 8.3% and the inhibition at 80 µM turned out to be 20.2 ± 6.4%.

`O=C(CN1CCCC2=C[C@H]3C[C@H](CN4CCCC[C@H]34)[C@@H]21)NS(=O)(=O)c1ccc(Br)c(C(F)(F)F)c1` [7c, 12N-N′-(4-Bromo-3-trifluoromethylbenzenesulfonyl)carbamoylmethyl aloperine]: the melting point fell in the range of 79 to 81 °C. Moreover, in data set [1], the inhibition at 40 µM stood at 32.9 ± 3.4% and the inhibition at 80 µM is 31.8 ± 3.1%.

As to `Cc1cccc(NC(=O)CN2CCCC3=C[C@H]4C[C@H](CN5CCCC[C@H]45)[C@@H]32)c1` [4f, 12N-N′-(3-Methylphenyl)carbamoylmethyl aloperine], the melting point was 40 to 42 °C. For the same compound, in data set [1], the inhibition at 40 µM turned out to be 21.2 ± 0.4% and the inhibition at 80 µM was determined as 33.8 ± 8%.

`O=C(CNS(=O)(=O)c1cccc(C(F)(F)F)c1)N1CCCC2=C[C@H]3C[C@H](CN4CCCC[C@H]34)[C@@H]21` [10e, 12N-N′-m-Trifluoromethylbenzenesulfonylaminoacetyl aloperine] showed a melting point of 91 to 93 °C. For the same compound, in data set [1], the inhibition at 40 µM came out at 29.7 ± 5.1% and the inhibition at 80 µM was 26.7 ± 21.3%.

Consider `O=C(O[C@@H]1Cc2c(O)cc(O)cc2O[C@@H]1c1cc(O)c(O)c(O)c1)c1cc(O)c(O)c(O)c1` [EGCG, reference compound], for which, in data set [1] (at the concentration of 25 μM (positive control)), the “Inhibition Percentage (inhibition rate of COL1A1 promotor's activity)” value was 27.5 ± 7.9^e %.

`Cc1cc(NC(=O)CN2CCCC3=C[C@H]4C[C@H](CN5CCCC[C@H]45)[C@@H]32)cc(C)c1C` [4k, 12N-N′-(3,4,5-Trimethylphenyl)carbamoylmethyl aloperine] showed a melting point of 183 to 185 °C. Further, in data set [1], the inhibition at 40 µM is 50.1 ± 6.9% and the inhibition at 80 µM was 70.7 ± 1.5%.

`O=C(CN1CCCC2=C[C@H]3C[C@H](CN4CCCC[C@H]34)[C@@H]21)Nc1ccccc1` [4d, 12N-N′-Phenylcarbamoylmethyl aloperine] showed a melting point of 66 to 68 °C. Further, in data set [1], the inhibition at 40 µM stood at 18.6 ± 8.6% and the inhibition at 80 µM is 28.3 ± 2.8%.

In turn, `CN(C(=O)CN1CCCC2=C[C@H]3C[C@H](CN4CCCC[C@H]34)[C@@H]21)c1ccccc1` [4m] came in with a melting point of 73 to 75 °C. Moreover, in data set [1], the inhibition at 40 µM amounted to 19.9 ± 5.2% and the inhibition at 80 µM is 34.6 ± 2.5%.

In turn, `O=C(CN1CCCC2=C[C@H]3C[C@H](CN4CCCC[C@H]34)[C@@H]21)Nc1cccc(OC(F)(F)F)c1` [4g, 12N-N′-(m-Trifluoromethoxyphenyl)carbamoylmethyl aloperine] had a melting point of 50 to 52 °C. Also, in data set [1], the inhibition at 40 µM came to 67.8 ± 14.9% and the inhibition at 80 µM was 95.5 ± 5.5%.

`O=C(CN1CCCC2=C[C@H]3C[C@H](CN4CCCC[C@H]34)[C@@H]21)Nc1cccc2ncccc12` [4l, 12N-N′-(5-Quinolyl)carbamoylmethyl aloperine]: the melting point fell in the range of 74 to 76 °C. In data set [1], the inhibition at 40 µM was 31.5 ± 2.6% and the inhibition at 80 µM came out at 22.4 ± 16.1%.

Consider `C1=C2CCCN[C@H]2[C@@H]2C[C@H]1[C@H]1CCCCN1C2` [compound 1, Aloperine], for which, in data set [1], the inhibition at 40 µM was determined as 4.7 ± 3.7% and the inhibition at 80 µM stood at 2.6 ± 5.2%.
